Assay results published in patent US9420813B2, “Sweetener” (AJINOMOTO CO., INC., priority 2007, dated 2016).
*1 amine or outer side, *2 acyl side, *3 side chain or, on linkers, in order; H or OH if unused. Where no end group is shown, it is not given here. [ ]: non-standard residue; d: D form. γGlu = O=C(O)[C@H](CCC(=O)[*:2])N[*:1]; Abu = CC[C@H](N)C(=O)O

Test: Quantitative sensory evaluation, improvement of body taste and bitterness of single high-intensity sweeteners (Examples 1 and 3)
Set-up: species or system human
Settings: for Bitterness: control 0, <0 improved; for Bitterness / Body taste: n=12; for Body taste: control 0, >0 improved; for improvement of the body taste (conclusion in words): APM, sucralose or Ace-K solutions, Tables 6 to 8 and 13 to 15
Experimental: The quantitative sensory evaluation test was performed as follows. As for standard solutions of each sweetener, the following compounds were used. The following standard solutions were adjusted so that they each have almost the same degree of sweetness.
iii) Sucralose (0.008 g/dl)
To distilled water containing each of the above sweeteners, γ-Glu-Cys-Gly (glutathione), γ-Glu-Val-Gly, or γ-Glu-Abu-Gly was added and mixed at concentrations of 0.0001 to 1 g/dl, and then the degree of the improvement of the body taste and the improvement of the bitterness on the sweet taste was measured.
When one of the mixtures is more acidic than the standard control solution, the pH of the sample solution was adjusted with NaOH to achieve a range of pH±0.2 with respect to the pH of the standard solution before use.
(§1) The sensory evaluation for the improvement of the body taste was performed with n=12 on the basis of the following criteria: a control (obtained by adding distilled water only and without adding glutathione and/or the peptide) was defined as 0, and by using the control as a standard, the following were defined: weak: −2 points; slightly weak: −1 point; slightly strong: 1 point, and strong: 2 points. A higher score than 0 means that the sample improved the body taste.
as §1, with “Alternatively, the” for “The”, “bitterness” for “body taste”, “lower” for “higher”, “improves” for “improved”, “bitterness.” for “body taste.”
The quantitative sensory evaluation test was performed as follows. As for standard solutions of each sweetener, the following compounds were used. The following standard solutions have been adjusted so as they each have almost the same degree of sweetness.
To distilled water containing each sweeteners, γ-Glu-Val-Gly or cinacalcet was mixed as a sample at concentrations of 0.0001 to 1 g/dl, respectively, and then each degree of the improvement of the body taste and the improvement of the bitterness on the sweet taste was measured.
When a mixture is more acidic than the standard control solution, the pH of the mixture was adjusted with NaOH to achieve a range of pH±0.2 with respect to the pH of the standard solution before use.
as §1, with “a sample)” for “glutathione and/or the peptide)”, “improves” for “improved”
Alternatively, the sensory evaluation for the improvement of the bitterness was performed with n=12 on the basis of the following criteria: a control (obtained with adding distilled water only and without adding a sample) was defined as 0, and by using the control as a standard, the following were defined: weak: −2 points; slightly weak: −1 point; slightly strong: 1 point, and strong: 2 points. A lower score than 0 means that the sample improves the bitterness.

[1] = APM 0.025 g/dl, sample 0.0001 g/dl
[2] = APM 0.025 g/dl, sample 0.001 g/dl
[3] = Ace-K 0.025 g/dl, sample 0.0001 g/dl
[4] = Ace-K 0.025 g/dl, sample 0.001 g/dl
[5] = sucralose 0.008 g/dl, sample 0.0001 g/dl
[6] = sucralose 0.008 g/dl, sample 0.001 g/dl
[7] = APM 0.025 g/dl, sample 0.05 g/dl
[8] = Ace-K 0.025 g/dl, sample 0.05 g/dl
[9] = sucralose 0.008 g/dl, sample 0.05 g/dl
[10] = APM 0.025 g/dl, sample 0.001 g/dl (γ-Glu-Abu-Gly of Table 6)
[11] = Ace-K 0.025 g/dl, sample 0.01 g/dl
[12] = sucralose 0.008 g/dl, sample 0.01 g/dl

Row | Compound | Bitterness [1] [points] | Body taste [1] [points] | Bitterness [2] [points] | Body taste [2] [points] | improvement of the body taste (conclusion in words) | Taste profile [3] | Bitterness [3] [points] | Body taste [3] [points] | Taste profile [4] | Bitterness [4] [points] | Body taste [4] [points] | Bitterness [5] [points] | Body taste [5] [points] | Bitterness [6] [points] | Body taste [6] [points] | further results
1 | C[C@@H](NCCCc1cccc(C(F)(F)F)c1)c1cccc2ccccc12 [Cinacalcet, (R)—N-(3-(3-(trifluoromethyl)phenyl)propyl)-1-(1-naphthyl)ethylamine, reference compound] | −0.2 | 0.8 | −0.5 | 1.5 | improve the body taste at almost the same concentration | Sweet taste with growth is enhanced in middle | −0.2 | 0.6 | Sweet taste with growth is enhanced in middle | −0.3 | 1.1 | −0.1 | 0.5 | −0.2 | 1.1 | –
2 | N[C@@H](CCC(=O)N[C@@H](CS)C(=O)NCC(=O)O)C(=O)O [γ-Glu-Cys-Gly, reference compound] | – | – | – | – | – | – | – | – | – | – | – | – | – | – | – | Taste profile [7]: Sweet taste is wholly enhanced.; Bitterness [7]: −0.5 points; Body taste [7]: 1.0 points; Bitterness [8]: −0.6 points; Body taste [8]: 1.0 points; Taste profile [9]: Sweet taste with growth is enhanced in middle; Bitterness [9]: 0 points; Body taste [9]: 1.0 points
3 | [γGlu]-Val-Gly | −0.2 | 0.5 | −0.5 | 1.3 | improve the body taste at almost the same concentration | Sweet taste with growth is enhanced in middle | −0.6 | 0.7 | Sweet taste with growth is enhanced in middle | −1.2 | 1.2 | −0.1 | 0.7 | −0.2 | 1.3 | –
4 | [γGlu]-[Abu]-Gly | – | – | −0.1 | 0.7 | – | – | – | – | – | −0.6 | 0.5 | – | – | −0.1 | 0.5 | Taste profile [2]: Sweet taste is enhanced in initial taste; Taste profile [10]: Sweet taste is enhanced in initial taste; Bitterness [10]: −0.1 points; Body taste [10]: 1.5 points; Bitterness [11]: −1.2 points; Body taste [11]: 1.1 points; Bitterness [12]: −0.1 points; Body taste [12]: 1.0 points
